For data set [1], the target named is purified recombinant human PDE5 (Homo sapiens, UniProt O76074). Put plainly: in vitro PDE5 inhibition assay measuring GMP production from cGMP (HPLC-UV-MS). The class given is biochemical. Conditions: 1 nM PDE5 catalytic domain, 0.3 μM cGMP, 25 °C, 15 min; mean of at least three replicates ± SEM; read-out: IC50. On the procedure:
STRENDA guidelines were considered in the description of the following enzyme activity assays. PDE5 inhibition and kinetics assays were carried out according to the method of Kincaid and Manganiello [31] and Dell’Agli et al. 1 nM recombinant human PDE5 (catalytic domain consisting of amino acids 537–875, Abcam, ab125581) was pre-incubated with PDE5 inhibitors (synthesized in-house as described above or purchased from Selleck Chemicals) in 40 mM tris-hydrochloric acid, pH 7.8, containing 10 mM MgCl2. […]. PDE5 inhibitors were added to each reaction using a Hewlett-Packard D300 Digital Dispenser (Tecan). Maximum DMSO concentration was 0.1% of the final reaction volume for all samples. After incubation at 25 °C for 5 minutes to allow interaction between PDE5 and drugs, the reaction was started with the addition of 0.3 μM cGMP (Enzo Life Sciences, Inc.) and incubated at 25 °C for 15 minutes. The final reaction volume was 100 μL. Reactions were stopped with the addition of 100 μL of 0.1 M HCl and neutralized by adding 0.1 M NaOH until the pH was 7. […] The amount of GMP produced was measured by HPLC-UV-MS as described in the general procedures. Reaction mixture components were separated with a ramp gradient of solvent A and B run at a flow rate of 0.5 mL/min as follows: 0–4 minutes 0% B, 4–7 minutes 0–95% B, 7–8 minutes 95% B, 8–11.1 minutes 0% B. GMP was measured using selected reaction monitoring in positive mode for a centroid center mass of 152.
A calibration curve using known concentrations of GMP was generated using the HPLC-UV-MS method described above to quantify the absolute amount of GMP in each reaction (S13 Fig). The linear range was from 5.9 nM to 3 μM. The limit of detection (LOD), defined as the lowest concentration producing a detectable peak above background, was 0.1 nM. The lower limit of quantification (LLOQ), defined as the lowest concentration used to generate a standard curve with r^2 > 0.95, was 5.9 nM. The upper limit of quantification (ULOQ), defined as the highest concentration used to generate a standard curve with r^2 > 0.95, was 3 μM. A GMP calibration curve was generated with each individual run of the HPLC-UV-MS.
To measure the IC50 as a result of treatment with each icariin analog, the in vitro inhibition enzyme assay as described above was performed, and GMP levels were normalized to no-drug controls and multiplied by 100 to obtain the percent PDE5 activity. IC50 mean ± SEM values were determined by nonlinear-regression fitting of the percent PDE5 activity data using the [inhibitor] vs response–variable slope (four parameters) equation in Prism (version 7.0a and version 8). Top value was constrained to 100, all other parameters were unconstrained. To obtain the dose-response curves for visual confirmation of the best-fit line, we executed a nonlinear regression fitting using the log(inhibitor) vs. response—variable slope (four parameters) equation in Prism. […] AICc analysis (built into Prism) was used to confirm the best-fitting inhibition model. […] Inhibition models were also compared via visual inspection of the fit of the calculated curves on the Michaelis-Menten plots.

The next data set deals with recombinant human PDE5 (Homo sapiens, UniProt O76074). Briefly: in vitro PDE5 kinetics assay (nonlinear regression, AICc model comparison). The data set is classed as biochemical. On the procedure:
guidelines were considered in the description of the following enzyme activity assays. […] For kinetics assays, 0.015, 0.05, and 0.2 μM of compounds 3 and 7 were used. […] Maximum DMSO concentration was 0.1% of the final reaction volume for all samples. […] The final reaction volume was 100 μL. Reactions were stopped with the addition of 100 μL of 0.1 M HCl and neutralized by adding 0.1 M NaOH until the pH was 7. […] Reaction mixture components were separated with a ramp gradient of solvent A and B run at a flow rate of 0.5 mL/min as follows: 0-4 minutes 0% B, 4-7 minutes 0-95% B, 7-8 minutes 95% B, 8-11.1 minutes 0% B. GMP was measured using selected reaction monitoring in positive mode for a centroid center mass of 152. […] Top value was constrained to 100, all other parameters were unconstrained. To obtain the dose-response curves for visual confirmation of the best-fit line, we executed a nonlinear regression fitting using the log(inhibitor) vs. response-variable slope (four parameters) equation in Prism. […] AICc analysis (built into Prism) was used to confirm the best-fitting inhibition model. […] Inhibition models were also compared via visual inspection of the fit of the calculated curves on the Michaelis-Menten plots.

For data set [2], the target named is T1, partially purified recombinant human PDE6C (Homo sapiens, UniProt P51160).
T1 construct: partially purified recombinant full-length human PDE6C; purchased SB Drug Discovery; host or cells: insect cells
Put plainly: PDE6C inhibition assay (GMP production). The data set is classed as biochemical. On the procedure:
PDE6C inhibition was measured using the same method as described for PDE5 with modifications. […] The final reaction volume was 50 μL. […] Reactions were stopped as described above for PDE5 enzyme assays, and GMP was quantified as described above. […] The amount of GMP produced in these samples was subtracted from all samples before normalizing against untreated controls.

The nature of data set [3]: mitochondrial viability assay with resazurin. Conditions: human, four cell lines, 0.01–10 μM, even at the highest concentration tested (10 μM). The class given is cell-based, human. The procedure:
The human cell lines SH-SY5Y (SY5Y, ATCC CRL-2266), SK-MEL-5 (SKMEL-5, ATCC HTB-70), and NCI-H187 (H187, ATCC CRL-5804) were cultured in RPMI medium supplemented with 10% FBS and no antibiotics. These three cell lines were generously provided by the laboratory of Susan Lindquist via Luke Whitesell (currently at the University of Toronto, Toronto, ON, Canada). BJ-hTERT (described in [27], generously provided by Robert Weinberg, Whitehead Institute, Cambridge MA, USA) was cultured in 4:1 DMEM:M199 medium supplemented with 15% FBS and no antibiotics. All cell lines were grown and assayed at 37 °C, 5% CO2. All cell lines were screened for mycoplasma contamination by PCR (Mycoscope Detection Kit, Fisher Scientific) before use in assays.
For viability assays, cells were plated in black, clear bottom 384-well tissue culture-treated plates (Corning) and incubated overnight in the media described above but supplemented with 50 U/mL penicillin-streptomycin antibiotic (Life Technologies). Then, DMSO (no drug controls) and PDE5 inhibitors (0.01–10 μM; synthesized as described above or purchased from Selleck Chemicals) were added using a Hewlett-Packard D300 Digital Dispenser (Tecan) and incubated for 3 days. Maximum DMSO concentration was normalized to 0.1% of the total well volume for all wells. Resazurin (R & D Systems) was diluted 1:20 into each well and incubated for up to 4 hours. Fluorescence was read in a Tecan plate reader (excitation = 570 nm, emission = 585 nm). Wells treated with PDE5 inhibitors were normalized against control wells treated with DMSO to measure percent mitochondrial viability (100 = no effect on mitochondrial viability).

“Also recorded” adds a separate entry of the source.

T1 sequence (P51160 whole entry): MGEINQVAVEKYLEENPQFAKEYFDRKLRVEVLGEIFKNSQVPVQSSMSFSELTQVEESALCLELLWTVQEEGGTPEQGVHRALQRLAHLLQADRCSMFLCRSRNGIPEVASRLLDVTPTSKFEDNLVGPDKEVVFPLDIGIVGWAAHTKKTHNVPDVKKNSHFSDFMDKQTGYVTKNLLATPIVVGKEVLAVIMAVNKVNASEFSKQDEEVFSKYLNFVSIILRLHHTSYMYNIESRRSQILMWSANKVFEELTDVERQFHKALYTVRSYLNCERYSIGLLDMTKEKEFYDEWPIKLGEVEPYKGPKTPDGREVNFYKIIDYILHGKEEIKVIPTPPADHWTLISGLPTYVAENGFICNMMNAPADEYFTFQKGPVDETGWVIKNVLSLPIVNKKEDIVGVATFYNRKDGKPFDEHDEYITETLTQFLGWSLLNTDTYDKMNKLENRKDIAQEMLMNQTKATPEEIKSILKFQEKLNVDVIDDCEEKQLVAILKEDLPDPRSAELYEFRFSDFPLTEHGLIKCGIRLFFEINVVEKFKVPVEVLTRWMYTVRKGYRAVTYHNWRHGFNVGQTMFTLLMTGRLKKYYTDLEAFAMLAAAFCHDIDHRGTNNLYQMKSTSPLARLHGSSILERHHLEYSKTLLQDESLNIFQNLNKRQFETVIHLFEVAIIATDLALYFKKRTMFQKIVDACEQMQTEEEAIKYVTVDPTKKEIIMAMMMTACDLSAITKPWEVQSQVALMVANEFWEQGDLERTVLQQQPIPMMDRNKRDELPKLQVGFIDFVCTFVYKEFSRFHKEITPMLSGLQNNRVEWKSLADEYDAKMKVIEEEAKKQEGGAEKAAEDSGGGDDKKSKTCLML

Broadly, the IC50 is the concentration that gives 50% inhibition. By Ki is commonly meant a dissociation constant, usually derived from enzyme kinetics or from competition with a known ligand. Broadly, the viability is a per cent measure of how many cells are alive, often set against a control. The low end stands for a greater loss of cells, the high end for better survival. On to `COc1ccc(-c2oc3c(CC=C(C)C)c(O)cc(O)c3c(=O)c2OCCCO)cc1` [Compound 7, 3-O-(3-Hydroxypropyl)-Icaritin], for which the IC50 in data set [1] came to 0.14 ± 0.06 µM. The Ki at recombinant human PDE5 was 0.036 ± 0.007 µM. Also, the Preferred model entry at recombinant human PDE5 (AICc comparison of competitive vs noncompetitive inhibition) and on recombinant human PDE5 (AICc comparison of competitive vs uncompetitive inhibition) was “Competitive inhibition” in each case. Further, the “probability that the competitive inhibition model is correct” value at recombinant human PDE5 (AICc, compared to a noncompetitive or uncompetitive model) was > 99%. The “Probability it is correct (competitive inhibition)” value is >99.99% at recombinant human PDE5 (AICc, competitive vs noncompetitive inhibition) and >99.99% on recombinant human PDE5 (AICc, competitive vs uncompetitive inhibition). In addition, the mode of inhibition result on recombinant human PDE5 (Lineweaver-Burk plot and AICc analysis) is “competitive inhibition as the best fitting model; also recorded: partially competitive model”. Further, in data set [2], the “specificity for PDE5 over PDE6C” value is listed as “does not show this specificity”. Also, the “PDE6C inhibition, statistical significance” value in data set [2] (at 50x the PDE5 IC50, vs theoretical uninhibited mean of 100%) is recorded as “significantly inhibits PDE6C activity”. The viability at 3 days, 10 μM in data set [3] was > 70%.

These data come from paper PMC6754136 (PLoS ONE, 2019).
